For the test, the target named is FGFR2 (Homo sapiens, UniProt P21802). In words: FGFR wild type enzyme assay (HTRF KinEASE-TK), FGFR2. The settings on record: Enz FGFR2 (nM), FGFR2 wild type enzyme assay.
FGFR2, sequence (P21802 399-821 limits assumed): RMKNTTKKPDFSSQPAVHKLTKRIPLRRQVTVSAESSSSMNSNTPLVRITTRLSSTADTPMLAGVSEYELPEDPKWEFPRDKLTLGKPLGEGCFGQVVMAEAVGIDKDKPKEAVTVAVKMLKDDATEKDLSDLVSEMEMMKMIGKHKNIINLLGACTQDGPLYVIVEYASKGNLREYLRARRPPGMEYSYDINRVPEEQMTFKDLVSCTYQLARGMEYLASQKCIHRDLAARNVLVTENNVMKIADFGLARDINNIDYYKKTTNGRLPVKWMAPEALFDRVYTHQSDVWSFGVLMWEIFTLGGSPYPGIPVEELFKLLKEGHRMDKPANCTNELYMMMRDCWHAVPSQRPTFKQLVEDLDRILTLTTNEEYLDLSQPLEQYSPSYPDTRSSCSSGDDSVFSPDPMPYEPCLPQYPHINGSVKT
Procedure: Activity against FGFR wild type and mutant enzymes were determined in biochemical assays using purified intracellular domains of the respective isoforms using HTRF KinEASE-TK assay technology from CisBio, now PerkinElmer. (Catalogue number 62TK0PEC). Briefly test compounds were tested in 11 point 1:3 serial dilutions, typical final concentration ranges from 10,000 nM to 0.17 nM. Test compounds were dissolved in DMSO and added to assay plates using acoustic transfer. Enzyme was pre-incubated with test compound for 30 minutes and the assay was initiated by addition of ATP and TK-peptide substrate. After 60 minutes at room temperature the reaction was quenched with detection reagent and incubated for an additional 60 minutes at room temperature. The plates were read using a multimode reader and the emission ratio of 665 nm to 615 nm was determined. This ratio was converted to percent of control (POC). [1-(high control-sample signal)/(high control-low control)]*100. Wells without compound were used to determine high control values and wells without enzyme were used to determine low control values. The POC values were fit using a four-parameter logistic model and the value where the fit curve was equal to 50 POC was reported as the IC50 using the Signals Vitro Vivo software package (PerkinElmer). Final assay conditions were: 50 mM HEPES pH7.5, 10 mM MgCl2, 1 mM EDTA, 0.01% Brij-35, 2 mM MnCl2, 1 mM DTT, and 0.5 uM TK-peptide.
In turn, `Cc1c(-c2cc(Sc3ccc(F)cn3)c3c(C#N)cnn3c2)cnn1[C@H]1CCCN(C)C1` [Example 343, (S)-4-((5-fluoropyridin-2-yl)thio)-6-(5-methyl-1-(1-methylpiperidin-3-yl)-1H-pyrazol-4-yl)pyrazolo[1,5-a]pyridine-3-carbonitrile] returned a concentration for half-maximal inhibition (IC50) of 9 nM.
`Cc1c(-c2cc(Sc3ncc(F)cc3F)c3c(C#N)cnn3c2)cnn1[C@H]1CC[C@@H](NC(=O)CO)CC1` [Example 344, N-((1s,4s)-4-(4-(3-cyano-4-((3,5-difluoropyridin-2-yl)thio)pyrazolo[1,5-a]pyridin-6-yl)-5-methyl-1H-pyrazol-1-yl)cyclohexyl)-2-hydroxyacetamide] showed an IC50 of 3 nM.
For `Cc1c(-c2cc(Sc3ncc(F)cc3F)c3c(C#N)cnn3c2)cnn1[C@H]1CCCNC1` [Example 345, (S)-4-((3,5-difluoropyridin-2-yl)thio)-6-(5-methyl-1-(piperidin-3-yl)-1H-pyrazol-4-yl)pyrazolo[1,5-a]pyridine-3-carbonitrile], the midpoint of inhibition, the IC50, lay at 4 nM.
Regarding `Cc1c(-c2cc(Sc3ncc(F)cc3F)c3c(C#N)cnn3c2)cnn1[C@H]1CCCN(C)C1` [Example 346, (S)-4-((3,5-difluoropyridin-2-yl)thio)-6-(5-methyl-1-(1-methylpiperidin-3-yl)-1H-pyrazol-4-yl)pyrazolo[1,5-a]pyridine-3-carbonitrile], half-maximal inhibition (IC50) was put at 5 nM.
Compound `CN[C@H]1CC[C@H](n2ncc(-c3cc(Sc4ccccn4)c4c(C#N)cnn4c3)c2C)CC1` [Example 347, 6-(5-methyl-1-((1r,4r)-4-(methylamino)cyclohexyl)-1H-pyrazol-4-yl)-4-(pyridin-2-ylthio)pyrazolo[1,5-a]pyridine-3-carbonitrile] had a concentration for half-maximal inhibition (IC50) of 2.5 nM.
Compound `CN[C@]1(C)CC[C@H](n2ncc(-c3cc(Sc4ccccn4)c4c(C#N)cnn4c3)c2C)CC1` [Example 348, 6-(5-methyl-1-((1s,4s)-4-methyl-4-(methylamino)cyclohexyl)-1H-pyrazol-4-yl)-4-(pyridin-2-ylthio)pyrazolo[1,5-a]pyridine-3-carbonitrile] came in with a concentration for half-maximal inhibition (IC50) of 2 nM.
Turning to `CC(=O)N[C@H]1CC[C@@H](n2cc(-c3cc(Sc4ccc(F)cn4)c4c(C#N)cnn4c3)cn2)CC1` [Example 349, N-((1s,4s)-4-(4-(3-cyano-4-((5-fluoropyridin-2-yl)thio)pyrazolo[1,5-a]pyridin-6-yl)-1H-pyrazol-1-yl)cyclohexyl)acetamide], the half-inhibitory concentration (IC50) amounted to 3 nM.
With `CC(=O)N[C@H]1CC[C@H](n2cc(-c3cc(Sc4ccccc4C#N)c4c(C#N)cnn4c3)cn2)C1` [Example 350, N-((1s,3S)-3-(4-(3-cyano-4-((2-cyanophenyl)thio)pyrazolo [1,5-a]pyridin-6-yl)-1H-pyrazol-1-yl)cyclopentyl)acetamide], the IC50 was 0.5 nM.
The same measure for `Cc1c(-c2cc(Sc3ccc(F)cc3C#N)c3c(C#N)cnn3c2)cnn1[C@H]1CC[C@](C)(N)CC1` [Example 351, 6-(1-((1r,4r)-4-amino-4-methylcyclohexyl)-5-methyl-1H-pyrazol-4-yl)-4-((2-cyano-4-fluorophenyl)thio)pyrazolo [1,5-a]pyridine-3-carbonitrile]: 0.5 nM.
Compound `CN[C@]1(C)CC[C@@H](n2ncc(-c3cc(Sc4ccc(F)cc4C#N)c4c(C#N)cnn4c3)c2C)CC1` [Example 352, 4-((2-cyano-4-fluorophenyl)thio)-6-(5-methyl-1-((1r,4r)-4-methyl-4-(methylamino)cyclohexyl)-1H-pyrazol-4-y)pyrazolo[1,5-a]pyridine-3-carbonitrile] yielded an IC50 of 0.6 nM.
In the case of `Cc1c(-c2cc(Sc3ccc(F)cc3C#N)c3c(C#N)cnn3c2)cnn1C1CCN(CCO)CC1` [Example 353, 4-((2-cyano-4-fluorophenyl)thio)-6-(1-(1-(2-hydroxyethyl)piperidin-4-yl)-5-methyl-1H-pyrazol-4-yl)pyrazolo[1,5-a]pyridine-3-carbonitrile] it was 1 nM; in that of `Cc1c(-c2cc(Sc3ccc(F)cc3C#N)c3c(C#N)cnn3c2)cnn1C1CCN(C[C@H](C)O)CC1` [Example 354, (S)-4-((2-cyano-4-fluorophenyl)thio)-6-(1-(1-(2-hydroxypropyl)piperidin-4-yl)-5-methyl-1H-pyrazol-4-yl)pyrazolo[1,5-a]pyridine-3-carbonitrile], 2.5 nM.
Take `Cc1cccc(Sc2cc(-c3cnn(C4CCN(C)CC4)c3C)cn3ncc(C#N)c23)c1C#N` [Example 355, 4-((2-cyano-3-methylphenyl)thio)-6-(5-methyl-1-(1-methylpiperidin-4-yl)-1H-pyrazol-4-yl)pyrazolo[1,5-a]pyridine-3-carbonitrile]: the IC50 turned out to be 2 nM.
`Cc1c(-c2cc(Sc3cccc(F)c3C#N)c3c(C#N)cnn3c2)cnn1C1CCN(C)CC1` [Example 356, 4-((2-cyano-3-fluorophenyl)thio)-6-(5-methyl-1-(1-methylpiperidin-4-yl)-1H-pyrazol-4-yl)pyrazolo[1,5-a]pyridine-3-carbonitrile] gave a half-inhibitory concentration (IC50) of 10 nM.
`Cc1ccc(C#N)c(Sc2cc(-c3cnn(C4CCN(C)CC4)c3C)cn3ncc(C#N)c23)c1` [Example 357, 4-((2-cyano-5-methylphenyl)thio)-6-(5-methyl-1-(1-methylpiperidin-4-yl)-1H-pyrazol-4-yl)pyrazolo[1,5-a]pyridine-3-carbonitrile]: half-maximal inhibition (IC50) was put at 2 nM.
For `Cc1c(-c2cc(Sc3cc(Cl)ccc3C#N)c3c(C#N)cnn3c2)cnn1C1CCN(C)CC1` [Example 358, 4-((5-chloro-2-cyanophenyl)thio)-6-(5-methyl-1-(1-methylpiperidin-4-yl)-1H-pyrazol-4-yl)pyrazolo[1,5-a]pyridine-3-carbonitrile], the IC50 came out at 2 nM.
Regarding `Cc1c(-c2cc(Sc3cc(F)ccc3C#N)c3c(C#N)cnn3c2)cnn1C1CCN(C)CC1` [Example 359, 4-((2-cyano-5-fluorophenyl)thio)-6-(5-methyl-1-(1-methylpiperidin-4-yl)-1H-pyrazol-4-yl)pyrazolo[1,5-a]pyridine-3-carbonitrile], the IC50 was determined as 1.5 nM.
The compound `Cc1c(-c2cc(Sc3ccc(F)cc3C#N)c3c(C#N)cnn3c2)cnn1C1CCN(C(=O)[C@H](C)O)CC1` [Example 360, (S)-4-((2-cyano-4-fluorophenyl)thio)-6-(1-(1-(2-hydroxypropanoyl)piperidin-4-yl)-5-methyl-1H-pyrazol-4-yl)pyrazolo[1,5-a]pyridine-3-carbonitrile] gave an IC50 of 2 nM.
`COC(=O)N1CCC(n2ncc(-c3cc(Sc4ccc(F)cc4C#N)c4c(C#N)cnn4c3)c2C)CC1` [Example 361, methyl 4-(4-(3-cyano-4-((2-cyano-4-fluorophenyl)thio)pyrazolo [1,5-a]pyridin-6-yl)-5-methyl-1H-pyrazol-1-yl)piperidine-1-carboxylate] yielded a concentration for half-maximal inhibition (IC50) of 2 nM.
As to `COC(=O)N[C@H]1CC[C@@H](n2ncc(-c3cc(Sc4ccc(F)cc4C#N)c4c(C#N)cnn4c3)c2C)CC1` [Example 362, methyl ((1s,4s)-4-(4-(3-cyano-4-((2-cyano-4-fluorophenyl)thio)pyrazolo [1,5-a]pyridin-6-yl)-5-methyl-1H-pyrazol-1-yl)cyclohexyl)carbamate], the IC50 was 1 nM.
In the case of `COC(=O)N1CCC[C@H](n2ncc(-c3cc(Sc4ccc(F)cc4C#N)c4c(C#N)cnn4c3)c2C)C1` [Example 363, methyl (S)-3-(4-(3-cyano-4-((2-cyano-4-fluorophenyl)thio)pyrazolo [1,5-a]pyridin-6-yl)-5-methyl-1H-pyrazol-1-yl)piperidine-1-carboxylate] it was 2 nM; in that of `COC(=O)N[C@]1(C)CC[C@H](n2ncc(-c3cc(Sc4ccc(F)cc4C#N)c4c(C#N)cnn4c3)c2C)CC1` [Example 364, methyl ((1s,4s)-4-(4-(3-cyano-4-((2-cyano-4-fluorophenyl)thio)pyrazolo [1,5-a]pyridin-6-yl)-5-methyl-1H-pyrazol-1-yl)-1-methylcyclohexyl)carba-mate], 3 nM; in that of `COC(=O)N1[C@@H]2CC[C@H]1C[C@H](n1ncc(-c3cc(Sc4ccc(F)cc4C#N)c4c(C#N)cnn4c3)c1C)C2` [Example 365, methyl (1R,3s,5S)-3-(4-(3-cyano-4-((2-cyano-4-fluorophenyl)thio)pyrazolo [1,5-a]pyridin-6-yl)-5-methyl-1H-pyrazol-1-yl)-8-azabicyclo[3.2.1]octane-8-carboxylate], 2 nM.
Compound `Cc1c(-c2cc(Sc3ccc(F)cc3C#N)c3c(C#N)cnn3c2)cnn1[C@@H]1C[C@H]2CC[C@@H](C1)N2` [Example 366, 6-(1-((1R,3s,5S)-8-azabicyclo[3.2.1]octan-3-yl)-5-methyl-1H-pyrazol-4-yl)-4-((2-cyano-4-fluorophenyl)thio)pyrazolo [1,5-a]pyridine-3-carbonitrile] returned an IC50 of 0.6 nM.
The same measure for `N#Cc1ccccc1Sc1cc(-c2cnn(C3CCS(=O)(=O)CC3)c2)cn2ncc(C#N)c12` [Example 367, 4-((2-cyanophenyl)thio)-6-(1-(1,1-dioxidotetrahydro-2H-thiopyran-4-yl)-1H-pyrazol-4-yl)pyrazolo[1,5-a]pyridine-3-carbonitrile]: 0.4 nM; for `CC(=O)N[C@@H]1CC[C@@H](n2cc(-c3cc(Sc4ccccc4C#N)c4c(C#N)cnn4c3)cn2)C1` [Example 368, N-((1R,3R)-3-(4-(3-cyano-4-((2-cyanophenyl)thio)pyrazolo [1,5-a]pyridin-6-yl)-1H-pyrazol-1-yl)cyclopentyl)acetamide]: 0.4 nM; for `Cc1c(-c2cc(Sc3ccc(Cl)cc3C#N)c3c(C#N)cnn3c2)cnn1C1CCN(C)CC1` [Example 369, 4-((4-chloro-2-cyanophenyl)thio)-6-(5-methyl-1-(1-methylpiperidin-4-yl)-1H-pyrazol-4-yl)pyrazolo[1,5-a]pyridine-3-carbonitrile]: 5 nM.
Regarding `CN1CCC(n2ncc(-c3cc(Sc4ncccc4F)c4c(C#N)cnn4c3)c2C#N)CC1` [Example 370, 6-(5-cyano-1-(1-methylpiperidin-4-yl)-1H-pyrazol-4-yl)-4-((3-fluoropyridin-2-yl)thio)pyrazolo[1,5-a]pyridine-3-carbonitrile], the IC50 stood at 35 nM.
